The values below come from publication PMC6994103 (PLoS Neglected Tropical Diseases, 2020).

In one test the test system is VERO cells. Nature of the test: Toxicity assay in VERO cells (gentian violet staining). As to conditions: IC50 in VERO cells / IC50 in trypomastigotes (Y strain). The format is cell-based, African green monkey. The procedure: VERO cells (African green monkey Kidney, ATCC CCL-81) were cultured in MEM medium supplemented with 10% heat inactivated FCS, 0.15% (w/v) NaHCO3, 100 U/mL penicillin and 100 U/mL streptomycin at 37°C in 5% CO2.
The toxicity of the compounds was determined in VERO cells by the gentian violet staining assay. Briefly, the cells (1 x10^4 cells/well) were incubated in 96-well plates with the indicated compound or dimethyl sulfoxide (DMSO) as negative control and maintained at 37° C for 24 h. Then the cells were fixed for 15 min, and stained with 0.5% gentian violet. The absorbance was measured at 570 nm. The selectivity index (SI) was calculated for each CV analogue as the ratio between the IC50 obtained in mammalian cells and the IC50 in trypomastigotes. For the combined treatment, the results were presented as percentage of untreated cells.

In test [1] the test system is proline transporter TcAAAP069. Nature of the test: Proline transport assay in TcAAAP069 overexpressing (Tc069) epimastigotes. It counts as cell-based, Trypanosoma cruzi. As to conditions: Tc069 vs TcWT. The procedure:
(§1) Aliquots of epimastigote cultures (10^7 parasites) were centrifuged at 8,000 xg for 30 s, and washed once with PBS. […] Following incubation at 28°C, reaction was stopped by adding 1 mL of ice-cold PBS. Cells were centrifuged as indicated above, and washed twice with ice-cold PBS. Cell pellets were resuspended in 0.2 mL of water and counted for radioactivity in UltimaGold XR liquid scintillation cocktail (Packard Instrument Co., Meridien CT, USA). Cell viability was assessed by direct microscopic examination and viability assays by using “Cell Titer 96 Aqueous One Solution Cell Proliferation Assay (MTS)” (Promega, Madison, WI, USA) according to the manufacturer instructions. […] Non-specific uptake and carry over were assayed without incubation (T0), or incubated at 4°C. […] As a control, regular PBS buffer was used.

Test [2] deals with proline transporter TcAAAP069. Nature of the test: Proline transport assay in wild type (TcWT) epimastigotes. It counts as cell-based, Trypanosoma cruzi. The settings on record: for proline transport inhibition at 25 μM and 100 μM: TcWT epimastigotes, preliminary. The procedure: as §1
Test [3] deals with T. cruzi epimastigotes Dm28c strain. As to the kind of experiment: Trypanocidal activity in epimastigotes, Dm28c strain. The settings on record: Dm28c vs Y. It counts as cell-based, Trypanosoma cruzi. On the procedure:
(§2) VERO cells (5 x10^4 per well) were infected with trypomastigotes (2.5 ×10^5 per well) for 4 h. After this period, the infected cells were washed twice with phosphate-buffered saline (PBS), the MEM medium was replaced, and the cells were kept in culture at 37°C, 5% CO2. In order to obtain intracellular amastigotes, the cells were lysed 4 days after infection using a cell scraper, collected, washed twice with PBS (or MEM) and counted using a hemocytometer. Trypomastigotes were obtained from infected VERO cells as previously described.
(§3) Epimastigotes of T. cruzi were cultured as described above, in 24-wells plate at a start density of 0.5 x10^7 cells/mL in BHT medium. Parasites´ growth was evaluated at different concentrations of BZL, CV and CV structural analogues, and parasite proliferation was determined after 48 h. Trypanocidal activity in trypomastigotes and amastigotes was performed using 1 x10^6 cells/mL in 96-well plates and incubating at 37°C for 24 h in the presence of the corresponding drug. Growth was determined by counting in a Neubauer chamber and viability assays by using “Cell Titer 96 Aqueous One Solution Cell Proliferation Assay (MTS)” (Promega, Madison, WI, USA) according to the manufacturer’s instructions. Amastigotes were fixed with methanol, stained and mounted with Vectashield with DAPI (Vector Laboratories, Burlingame, CA, USA), and then the non-lysed cells were counted by using fluorescence microscopy.

For test [4], the system named is T. cruzi Tc069 epimastigotes Y strain. Nature of the test: Trypanocidal activity in TcAAAP069 overexpressing (Tc069) epimastigotes. It counts as cell-based, Trypanosoma cruzi. As to conditions: Tc069 vs TcWT. The procedure: as §3
In test [5] the test system is T. cruzi epimastigotes CL Brener strain. Nature of the test: Trypanocidal activity in epimastigotes, CL Brener strain. It counts as cell-based, Trypanosoma cruzi. The settings on record: CL Brener vs Y. The procedure:
as §2
Epimastigotes of T. cruzi were cultured as described above, in 24-wells plate at a start density of 0.5 x10^7 cells/mL in BHT medium. Parasites´ growth was evaluated at different concentrations of BZL, CV and CV structural analogues, and parasite proliferation was determined after 48 h. […] Growth was determined by counting in a Neubauer chamber and viability assays by using “Cell Titer 96 Aqueous One Solution Cell Proliferation Assay (MTS)” (Promega, Madison, WI, USA) according to the manufacturer’s instructions. Amastigotes were fixed with methanol, stained and mounted with Vectashield with DAPI (Vector Laboratories, Burlingame, CA, USA), and then the non-lysed cells were counted by using fluorescence microscopy.

Regarding `CC(C)/N=c1\cc2n(-c3ccc(Cl)cc3)c3ccccc3nc-2cc1Nc1ccc(Cl)cc1` [Clofazimine], the “Selectivity Index” value with VERO cells amounted to 36.1.

Turning to `CN(C)c1ccc(C(=C2C=CC(=[N+](C)C)C=C2)c2ccc(N(C)C)cc2)cc1` [Crystal Violet], the “fold increase of proline transport IC50 in Tc069 vs control parasites” value in test [1] came to 2.5 fold. Also, the “effect on pH dependency of proline transport” value in test [2] (CV 10 μM, citrate buffer pH 5.0-6.5) is recorded as “did not alter the pH dependency”. Moreover, the “proline transport inhibition in the absence of Na+ or K+ cations” value in test [2] (CV 10 μM, modified PBS vs regular PBS) was “No differences were observed”. Besides, the “mechanism of inhibition of proline transport” value in test [2] (TcWT, listed as CV) is “reversible competitive mechanism of inhibition”. Moreover, the “fold lower IC50 in Dm28c than in Y epimastigotes” value in test [3] is listed as 31.8 fold. Also, in test [4], the “fold reduction of trypanocidal IC50 in Tc069 vs wild type” value is 47 fold. The “fold lower IC50 in CL Brener than in Y epimastigotes” value in test [5] came to 4.0 fold.

With `Nc1ccc(S(=O)(=O)c2ccc(N)cc2)cc1` [Dapsone], in test [2], the “proline transport inhibition at 25 μM and 100 μM” value is on record as “did not inhibit the proline transport in any concentration assayed”.

`Cc1cc2c(s1)Nc1ccccc1N=C2N1CCN(C)CC1` [Olanzapine]: the “proline transport inhibition at 25 μM and 100 μM” value in test [2] was “only inhibited proline transport at 100 μM”. Besides, the “concentration producing death of parasites in the lapse time of the transport assay” value in test [2] (epimastigotes) is on record as “over 300 μM”.
